How the values were obtained:
[1] = tested on: Caco-2 cell monolayer; test: TEER of Caco-2 monolayer with OA, PA, beta3′-GL and combinations (no DON); type: cell-based, human
Method: (§1) Caco-2 cells were used according to established methods. In brief: cells were cultured in Dulbecco's modified Eagle medium (DMEM) and seeded at a density of 0.3×10^5 cells into 0.3 cm^2 high pore density (0.4 μm) inserts with a polyethylene terephthalate membrane (BD Biosciences, Franklin Lakes, NJ, USA) placed in a 24-well plate. The Caco-2 cells were maintained in a humidified atmosphere of 95% air and 5% CO2 at 37° C. After 17-19 days of culturing, a confluent monolayer was obtained with a mean Transepithelial electrical resistance (TEER) exceeding 400 Ω cm^2 measured by a Millicell-Electrical Resistance System voltohm-meter (Millipore, Temecula, CA, USA).
(§2) Measurements of the transepithelial electrical resistance (TEER) and lucifer yellow (LY) permeability were conducted to investigate barrier integrity. For TEER measurements a Millicel-ERS voltohmmeter connected to a pair of chopsticks electrodes was used to measure the TEER values. Results are expressed as a percentage of the initial value. For paracellular tracer flux assay the membrane impermeable lucifer yellow (LY) (Sigma, St Luis, MO, USA) was added in a concentration of 16 μg/ml to the apical compartment in the transwell plate for 4 h, and the paracellular flux was determined by measuring the fluorescence intensity in the basolateral compartment with a spectrophotofluorimeter (FLUOstar Optima, BMG Labtech, Offenburg, Germany) set at excitation and emission wavelengths of 410 and 520 nm, respectively. Release of interleukin-8 (IL-8 or CXCL8), which is a typical marker for inflammation, was quantified in the medium of the apical side and the basolateral side of the Caco-2 transwell inserts in response to the treatments. CXCL8 concentrations were measured by using the human IL-8 ELISA assay (BD Biosciences, Pharmingem, San Diego, CA, USA) according to manufacturer's instructions. For more details on materials and methods see Akbari et al, 2016, Eur J Nutr. 56(5):1919-1930.
(§3) Barrier function experiments were performed using the method as described in example 3. Oleic acid (OA) and palmitic acid were obtained from Sigma-Aldrich. Palmitic acid was coupled to fatty acid free Bovine Serum Albumin (BSA, Roche) to make a 6:1 BSA-palmitic acid conjugate solution, which is needed to dissolve palmitic acid in culture medium and therefore common practice in the field (reference Alsabeeh et al, Biochim. Biophys Acta. 2018 February; 1863(2): 143-151). Throughout this document this conjugate solution will be abbreviated as PA.
Tables 5a and 5b show the effects of OA and PA and beta3′-GL and its combinations on the intestinal barrier function as measured by TEER.

[2] = tested on: Caco-2 cell monolayer; test: Lucifer yellow (LY) paracellular flux across Caco-2 monolayer, DON-induced impairment; type: cell-based, human; details: for effect on DON-induced loss of epithelial barrier integrity, LY flux (FIGS. 1C, 1D), in words: 0.75 wt. % GL, 24 h pretreatment, then DON 4.2 μM 24 h
Method: (§4) beta1,3′-galactosyl-lactose (beta3′-GL), beta1,4′-galactosyllactose (beta4′-GL) and beta1,6′-galactosyl-lactose (beta6′-GL) were obtained from Carbosynth (Berkshire, UK), alpha1,3′-galactosyl-lactose (alpha3′-GL) was obtained from Elicityl (Crolles, France). Purified deoxydivalenol (DON) (D0156; Sigma Aldrich, St Luis, MO, USA) was dissolved in pure ethanol and stored at −20° C. Human epithelial colorectal adenocarcinoma (Caco-2) cells were obtained from American Type Tissue Collection (Code HTB-37) (Manasse, VA, USA, passage 90-102).
as §1
(§5) Caco-2 cell monolayers were thus grown in a transwell system, which is a model for intestinal barrier function. The monolayers were pretreated for 24 h with different GLs, including beta3′-GL, alpha3′-GL, beta4′-GL and beta6′-GL in a concentration of 0.75 wt. % of the GL, before being exposed to the fungal toxin deoxynivalenol (DON), which is a trigger and model compound to impair intestinal barrier. DON was diluted to a final concentration of 4.2 μM in complete cell medium and added to the apical side as well as to the basolateral side of the transwell inserts. […] Incubation with DON was 24 h.
as §2
(§6) For TOS concentrations of 0.25 wt. % (TOS 0.25) and 0.5 wt. % (TOS 0.5) were tested.
Barrier function experiments were performed using the method as described in example 3. Oleic acid (OA) and palmitic acid were obtained from Sigma-Aldrich. […]

[3] = tested on: Caco-2 cell monolayer; test: TEER of Caco-2 monolayer, DON-induced impairment of barrier integrity; type: cell-based, human; details: for effect on DON-induced loss of epithelial barrier integrity, TEER (FIGS. 1A, 1B), in words: 0.75 wt. % GL, 24 h pretreatment, then DON 4.2 μM 24 h
Method: as §4, §1, §5, §2, §6, §3

[4] = tested on: T84 human intestinal epithelial cells; test: TEER of T84 monolayers pre-incubated with fatty acids, SCFA mix or combination; type: cell-based; details: for % TEER (24 h): relative to medium control at 24 h
Source text: The effect of palmitic acid and oleic acid combined with a mixture of short chain fatty acids (SCFA mix) having a concentration profile that is typical for fermentation of a mixture of galacto-oligosaccharides (GOS) derived from VivinalGOS and long chain fructo-oligosaccharides (RaftilineHP) in a ratio of 9/1 (w/w) on barrier permeability was investigated. The concentration profiles of SCFA is as disclosed in Example 3 of EP2100520 (incorporated by reference herein), specifically as shown in FIG. 3A of EP2100520 (incorporated by reference herein) (see second bar in FIG. 3A), i.e. about 75% being acetic acid. Oleic acid and palmitic acid were obtained from Sigma-Aldrich and coupled to fatty acid free Bovine Serum Albumin (BSA, Sigma-Aldrich) prior to cell treatment.
T84 human intestinal epithelial cells are commonly used to study intestinal barrier integrity in vitro. T84 cells (ATCC, USA) were cultured on 12 mm transwell inserts (0.4 μm, Corning Costrar, USA) in DMEM-F12 glutamax with penicillin-streptomycin (100 IU/ml), supplemented with […]. T84 cells were used 14 days after reaching confluence. Monolayers of T84 cultured on transwell filters were pre-incubated with fatty acids, SCFA mix or a combination thereof for a period of 24 hours.
Epithelial barrier integrity was assessed by measuring transepithelial resistance (TEER; Ω×cm^2) with the epithelial volt-ohm meter (Millicell ERS-2; Millipore USA). TEER measurements were performed at 0, 24, h of incubation. TEER values of the fatty acids (i.e. SCFA, OA, PA) are expressed relative to the medium control TEER values at 24 h.

[5] = tested on: infant microbiota (pooled fecal samples from 3 healthy infants); test: Fermentation of galactosyllactoses by infant fecal microbiota (i-Screen anaerobic colon model); set-up: species or system human; acetate / lactate: unit not given here; details: t = 24 h
Method: The effect of pure 3′-GL, 4′-GL, and 6′-GL of the three galactosyllactoses functionality (pH, lactate, acetate levels) was evaluated. Beta1,3-galactosyllactose (beat3′-GL), beta1,4-galactosyllactose (beta4′-GL) and beta1,6-galactosyllactose (beta6′-GL) were obtained from Carbosynth (Berkshire, UK) Measurements of all parameters were performed after a 24-hour incubation in the high-throughput anaerobic colon model, i-Screen™ (TNO, Zeist, the Netherlands).
Fecal samples from 3 healthy infants (aged 1-4 months) were pooled and activated for 4 hours in a modified standard ileal efflux medium (pH 6.0) at 37° C. under anaerobic conditions. Next, each GL was added. After an incubation for 24 hours at 37° C. under anaerobic conditions, samples were collected for further analysis and pH levels were immediately measured using a pH meter MultiCal pH 526 (WTW, Weilheim, Germany). The samples were centrifuged at 4,000 g for 5 minutes and the supernatant was filter sterilized using 0.45 μm filters. For the SCFA analysis, a mixture of formic acid ([…]), methanol and 2-ethyl butyric acid (internal standard, 2 mg/ml in methanol) was added to the filtered supernatant. A 3 μl sample with a split ratio of 75.0 was injected on a GC-column (ZB-5HT inferno, ID 0.52 mm, film thickness 0.10 μm; Zebron; phenomenex, USA) in a Shimadzu GC-2014 gas chromatograph. The levels of acetic acid and lactic acid were measured. For lactate analysis, the total of D- and L-lactate was determined the filtered supernatant by the Arena 20XL analyser. This assay is based on the D- and L-lactic acid assay kits (Thermo Fisher Scientific oy, www.e-labeling.eu/TSF9843061FU and www.e-labeling.eu/TSF9843081FU). The assay was performed following the manufacturer's instructions with one adaptation: the reagents DLac RI and LLac RI from the two kits were mixed in a 1:1 ratio to detect both L and D isomers of lactic acid simultaneously. Calibration of the assay was done with an ‘Acid combination standard’ (order number 984382) containing both L-lactic acid and D-lactic acid.

[6] = tested on: interleukin-8 (IL-8 or CXCL8) release; test: DON-induced IL-8 (CXCL8) release from Caco-2 cells, ELISA; type: cell-based, human; details: DON 4.2 μM alone
Method: as §4
Caco-2 cells were used according to established methods. […] After 17-19 days of culturing, a confluent monolayer was obtained with a mean Transepithelial electrical resistance (TEER) exceeding 400 Ω cm^2 measured by a Millicell-Electrical Resistance System voltohm-meter (Millipore, Temecula, CA, USA). […]
Measurements of the transepithelial electrical resistance (TEER) and lucifer yellow (LY) permeability were conducted to investigate barrier integrity. […] Results are expressed as a percentage of the initial value. […] Release of interleukin-8 (IL-8 or CXCL8), which is a typical marker for inflammation, was quantified in the medium of the apical side and the basolateral side of the Caco-2 transwell inserts in response to the treatments. […]

Structure (SMILES): CCCCCCCCCCCCCCCC(=O)O [PA, palmitic acid]
- effect on TEER at 100 μM fatty acid, in words ([1]; 100 μM fatty acid, data not shown): This effect on TEER was also observed
- % TEER (24 h) ([1]; Table 5b: palmitic acid 600 μM, 3′GL 0): 69%
- gut barrier function by LYF assay, fatty acid alone, in words ([2]; DON model, data not shown): A similar effect was observed
- TEER in the presence of DON (FIG. 3), single ingredient, in words ([3]; DON 4.2 μM, 0.75 wt % beta3′-GL or 600 μM fatty acid alone): did not improve the TEER in the presence of DON
- % TEER (24 h) ([4]; fatty acid 50 μM + SCFA mix 40 mM): 143%
- increase of gut barrier function (TEER) versus control ([4]; fatty acid 50 μM in combination with SCFA 40 mM, 24 h): 43%
- increase of gut barrier function expected for an additive effect ([4]; fatty acid 50 μM plus SCFA 40 mM, additive): 54%
- % TEER (24 h) ([4]; fatty acid 50 μM, SCFA mix 0 mM): 94%
- change of gut barrier function (TEER) versus control ([4]; single ingredient: fatty acid 50 μM or SCFA mix 40 mM, 24 h): −6%

Structure (SMILES): OC[C@H]1O[C@@H](OC[C@H]2O[C@@H](O[C@H]3[C@H](O)[C@@H](O)C(O)O[C@@H]3CO)[C@H](O)[C@@H](O)[C@H]2O)[C@H](O)[C@@H](O)[C@H]1O (stereo partly drawn) [beta6′-GL, Gal (beta 1-6) Gal (beta 1-4)-Glc]
- acetate ([5]; 3 mg/ml): 51.9
- lactate ([5]; 3 mg/ml): 0.0
- acetate ([5]; 9 mg/ml): 74.3
- lactate ([5]; 9 mg/ml): 2.7
- effect on DON-induced loss of epithelial barrier integrity, LY flux (FIGS. 1C, 1D), in words [2]: did not show a significant effect
- effect on DON-induced loss of epithelial barrier integrity, TEER (FIGS. 1A, 1B), in words [3]: did not show a significant effect

Structure (SMILES): OC[C@H]1O[C@H](O[C@H]2[C@@H](O)[C@@H](CO)O[C@@H](O[C@H]3[C@H](O)[C@@H](O)C(O)O[C@@H]3CO)[C@@H]2O)[C@H](O)[C@@H](O)[C@H]1O (stereo partly drawn) [alpha3′-GL, Gal (alpha 1-3)-Gal (beta 1-4)-Glc]
- effect on DON-induced loss of epithelial barrier integrity, LY flux (FIGS. 1C, 1D), in words [2]: did not prevent the DON-induced disrupted intestinal barrier
- effect on DON-induced loss of epithelial barrier integrity, TEER (FIGS. 1A, 1B), in words [3]: did not prevent the DON-induced disrupted intestinal barrier

Structure (SMILES): CC1=C[C@H]2O[C@@H]3[C@H](O)C[C@](C)([C@@]2(CO)[C@H](O)C1=O)[C@]31CO1 [DON, deoxynivalenol]
- CXCL8 (IL-8) release (FIG. 2), in words [6]: increased CXCL8 (IL-8) release
